Test results published in publication PMC7937321 (Genes and Environment, 2021).

Assays:
[1] = test system: human lymphoblastoid TK6 cells, thymidine kinase gene; experiment: TK gene mutation assay (TK6 assay, OECD TG490); settings: for MF: graph sheet, TK6, 24 h
TK6 cells = experiment: Cytotoxicity in the TK6 assay (CE, RS, RSG, RTG); settings: for RS: graph sheet, TK6, 24 h
Experimental: Briefly, test substances were dissolved in an appropriate solvent (DMSO or ethanol) and then serially diluted to prepare final concentrations. […] The 4 h and 24 h treatments were conducted by shaking and static exposures, respectively. After treatment with test substances, cells were centrifuged (1000 rpm, 5 min), supernatants were removed, and cells were washed with a serum-free medium or Hank’s Balanced Salt Solution. After centrifugation (1000 rpm, 5 min) to remove the supernatant, cells (2 × 10^7 cells) were dispersed in an RPMI medium containing 10% serum, and cell concentration was measured. Treated cells were cultured at 37 °C with 5% CO2 condition and used for TK6 assays. At that time, to calculate the cloning efficiency (CE) (Eq. 1), the cells were cultured in a 96-well microplate at a concentration of about 1.6 cells/well for 2 weeks.
CE, the cell colony formation rate, was calculated using Eq. 1 according to the Poisson distribution equation. EW was the number of wells without colonies, and TW was the total number of wells. N was the average number of cells per well (N = 1.6). 1 CE=−lnEW/TW/N
Additionally, CE was adjusted by the following calculation (Eq. 2) due to cell loss when exposure caused cytotoxicity. “The number of cells at the end of the treatment” was the number of cells obtained after centrifugation at the end of the treatment in the above-described exposure treatment of the test substance. The “cell number at the start of treatment” was 2 × 10^7. 2 AdjustedCE=CE×number of cellsatendof treatment/number of cellsatthe start of treatment
CE0 seeding, in which cells were seeded immediately after treatment, and CE3 seeding, in which cells were seeded 3 days after treatment, to examine cell viability in the TK6 assay described below. The relative cell viability RS0 (%) just after the treatment with the test substance was calculated from CE0, following Eq. 3. The survival rate of the negative control group was defined as 100%. 3 RS0%=adjusted CE0 of treatment culture/adjusted CE0 of solvent control×100
The TK6 assay is conducted between 20 and 10% RS0 as a maximum dose if cytotoxicity is observed. […] When the main TK6 assay was difficult to conduct under the condition of RS0 values from 20 to 10%, the test was conducted between 20 and 10% relative total growth (RTG), described later, as a maximum dose.
Besides RS0, relative suspension growth (RSG) and RTG as other cytotoxicity indices (Eq. 4) were used. When cells were cultured for 3 days after treatment with the test substance, suspension cell growth ratio 1 (SG1) was the growth ratio from day 0 to day 1 (cell concentration on day 1/cell concentration on day 0). The suspension cell growth ratio 2 (SG2) was the growth ratio from day 1 to day 2 (cell concentration on day 2/cell concentration on day 1). The RSG value was calculated by dividing the total SG value of the untreated group for 3 days by the total SG value of the treated group for the same 3 days (Eq. 4).
On the third day of culture, CE3 plates for determining plating efficiency and mutant frequency (MF) plates for mutation detection were prepared. CE3 plates were seeded in 96-well microplates at a concentration of about 1.6 cells/well.

[2] = TK6, 24 h treatment, -S9 mix, dose 60.00 μg/mL
[3] = TK6, 24 h treatment, -S9 mix, dose 90.00 μg/mL
[4] = TK6, 24 h treatment, -S9 mix, dose 200.0 μg/mL
[5] = TK6, 24 h treatment, -S9 mix, dose 220.0 μg/mL
[6] = short treatment, +S9 mix, dose 62.5 μg/mL
[7] = short treatment, +S9 mix, dose 250 μg/mL
[8] = short treatment, +S9 mix, dose 500 μg/mL
[9] = short treatment, +S9 mix, dose 1000 μg/mL
[10] = short treatment, +S9 mix, dose 2000 μg/mL
[11] = short treatment, -S9 mix, dose 62.50 μg/mL
[12] = short treatment, -S9 mix, dose 500.0 μg/mL
[13] = short treatment, -S9 mix, dose 1000.0 μg/mL
[14] = short treatment, -S9 mix, dose 2000.0 μg/mL
[15] = short treatment, +S9 mix, Day 0, dose 62.5 μg/mL
[16] = short treatment, +S9 mix, Day 0, dose 250 μg/mL
[17] = short treatment, +S9 mix, Day 0, dose 500 μg/mL
[18] = short treatment, +S9 mix, Day 0, dose 1000 μg/mL
[19] = short treatment, +S9 mix, Day 0, dose 2000 μg/mL
[20] = short treatment, -S9 mix, Day 0, dose 62.50 μg/mL
[21] = short treatment, -S9 mix, Day 0, dose 500.0 μg/mL
[22] = short treatment, -S9 mix, Day 0, dose 1000.0 μg/mL
[23] = short treatment, -S9 mix, Day 0, dose 2000.0 μg/mL

Structure (SMILES): O=[N+]([O-])c1cc(N(CCO)CCO)ccc1NCCO [HC blue no2]
- %SG [1, 2]: 47.5%
- Mut. freq. N-MF [1, 2]: 1.5 ×10-6
- Mut. freq. S-MF [1, 2]: 1.4 ×10-6
- Mut. freq. T-MF [1, 2]: 2.9 ×10-6
- %SG [1, 3]: 74.7%
- Mut. freq. N-MF [1, 3]: 0.528 ×10-6
- Mut. freq. S-MF [1, 3]: 1.6 ×10-6
- Mut. freq. T-MF [1, 3]: 2.1 ×10-6
- %SG [1, 4]: 48.2%
- Mut. freq. N-MF [1, 4]: 3.7 ×10-6
- Mut. freq. S-MF [1, 4]: 3.4 ×10-6
- Mut. freq. T-MF [1, 4]: 7.1 ×10-6
- %SG [1, 5]: 52.5%
- Mut. freq. N-MF [1, 5]: 5.1 ×10-6
- Mut. freq. S-MF [1, 5]: 5.7 ×10-6
- Mut. freq. T-MF [1, 5]: 10.8 ×10-6
- MF ([1]; -S9 mix, dose 60.00 μg/mL): 2.9
- MF ([1]; -S9 mix, dose 90.00 μg/mL): 2.1
- MF ([1]; -S9 mix, dose 200.0 μg/mL): 7.1
- MF ([1]; -S9 mix, dose 220.0 μg/mL): 10.8
- %SG [1, 6]: 50.7%
- Mut. freq. N-MF [1, 6]: 0.7 ×10-6
- Mut. freq. S-MF [1, 6]: 0.7 ×10-6
- Mut. freq. T-MF [1, 6]: 1.5 ×10-6
- %SG [1, 7]: 22.9%
- Mut. freq. N-MF [1, 7]: 2.4 ×10-6
- Mut. freq. S-MF [1, 7]: 0.7 ×10-6
- Mut. freq. T-MF [1, 7]: 3.0 ×10-6
- %SG [1, 8]: 42.4%
- Mut. freq. N-MF [1, 8]: 1.9 ×10-6
- Mut. freq. S-MF [1, 8]: 1.4 ×10-6
- Mut. freq. T-MF [1, 8]: 3.3 ×10-6
- %SG [1, 9]: 28.4%
- Mut. freq. N-MF [1, 9]: 2.8 ×10-6
- Mut. freq. S-MF [1, 9]: 1.1 ×10-6
- Mut. freq. T-MF [1, 9]: 3.9 ×10-6
- %SG [1, 10]: 48.7%
- Mut. freq. N-MF [1, 10]: 1.3 ×10-6
- Mut. freq. S-MF [1, 10]: 1.2 ×10-6
- Mut. freq. T-MF [1, 10]: 2.5 ×10-6
- %SG [1, 11]: 23.1%
- Mut. freq. N-MF [1, 11]: 1.5 ×10-6
- Mut. freq. S-MF [1, 11]: 0.455 ×10-6
- Mut. freq. T-MF [1, 11]: 2.0 ×10-6
- %SG [1, 12]: 55.5%
- Mut. freq. N-MF [1, 12]: 1.8 ×10-6
- Mut. freq. S-MF [1, 12]: 2.3 ×10-6
- Mut. freq. T-MF [1, 12]: 4.1 ×10-6
- %SG [1, 13]: 26.3%
- Mut. freq. N-MF [1, 13]: 2.3 ×10-6
- Mut. freq. S-MF [1, 13]: 0.8 ×10-6
- Mut. freq. T-MF [1, 13]: 3.1 ×10-6
- %SG [1, 14]: 51.7%
- Mut. freq. N-MF [1, 14]: 1.8 ×10-6
- Mut. freq. S-MF [1, 14]: 1.9 ×10-6
- Mut. freq. T-MF [1, 14]: 3.7 ×10-6
- Adjusted CE0 (TK6 cells; [2]): 341.6%
- CE0 (cell viability on Day 0) (TK6 cells; [2]): 112.0%
- CE3 (cell viability on Day 3) (TK6 cells; [2]): 116.0%
- RS0 (TK6 cells; [2]): 128.6%
- RSG (TK6 cells; [2]): 0.865
- Adjusted CE0 (TK6 cells; [3]): 259.2%
- CE0 (cell viability on Day 0) (TK6 cells; [3]): 81.6%
- CE3 (cell viability on Day 3) (TK6 cells; [3]): 125.0%
- RS0 (TK6 cells; [3]): 97.6%
- RSG (TK6 cells; [3]): 0.765
- Adjusted CE0 (TK6 cells; [4]): 96.6%
- CE0 (cell viability on Day 0) (TK6 cells; [4]): 50.2%
- CE3 (cell viability on Day 3) (TK6 cells; [4]): 112.0%
- RS0 (TK6 cells; [4]): 36.4%
- RSG (TK6 cells; [4]): 0.241
- Adjusted CE0 (TK6 cells; [5]): 48.2%
- CE0 (cell viability on Day 0) (TK6 cells; [5]): 28.3%
- CE3 (cell viability on Day 3) (TK6 cells; [5]): 101.2%
- RS0 (TK6 cells; [5]): 18.1%
- RSG (TK6 cells; [5]): 0.106
- CE3 (TK6 cells; as fraction, mutation frequency table, TK6, 24 h treatment, -S9 mix, dose 60.00 μg/mL): 1.160
- CE3 (TK6 cells; as fraction, mutation frequency table, TK6, 24 h treatment, -S9 mix, dose 90.00 μg/mL): 1.250
- CE3 (TK6 cells; as fraction, mutation frequency table, TK6, 24 h treatment, -S9 mix, dose 200.0 μg/mL): 1.120
- CE3 (TK6 cells; as fraction, mutation frequency table, TK6, 24 h treatment, -S9 mix, dose 220.0 μg/mL): 1.012
- RS (TK6 cells; -S9 mix, dose 60.00 μg/mL): 128.6
- RS (TK6 cells; -S9 mix, dose 90.00 μg/mL): 97.6
- RS (TK6 cells; -S9 mix, dose 200.0 μg/mL): 36.4
- RS (TK6 cells; -S9 mix, dose 220.0 μg/mL): 18.1
- Adjusted CE0 (TK6 cells; [15]): 91.4%
- CE0 (TK6 cells; [15]): 81.6%
- RS0 (TK6 cells; [15]): 96.7%
- Adjusted CE0 (TK6 cells; [16]): 89.0%
- CE0 (TK6 cells; [16]): 74.8%
- RS0 (TK6 cells; [16]): 94.2%
- Adjusted CE0 (TK6 cells; [17]): 80.9%
- CE0 (TK6 cells; [17]): 79.3%
- RS0 (TK6 cells; [17]): 85.5%
- Adjusted CE0 (TK6 cells; [18]): 69.1%
- CE0 (TK6 cells; [18]): 59.6%
- RS0 (TK6 cells; [18]): 73.1%
- Adjusted CE0 (TK6 cells; [19]): 58.5%
- CE0 (TK6 cells; [19]): 54.7%
- RS0 (TK6 cells; [19]): 61.9%
- CE3 (TK6 cells; short treatment, +S9 mix, Day 3, dose 62.5 μg/mL): 92.1%
- CE3 (TK6 cells; short treatment, +S9 mix, Day 3, dose 250 μg/mL): 104.6%
- CE3 (TK6 cells; short treatment, +S9 mix, Day 3, dose 500 μg/mL): 92.1%
- CE3 (TK6 cells; short treatment, +S9 mix, Day 3, dose 1000 μg/mL): 108.2%
- CE3 (TK6 cells; short treatment, +S9 mix, Day 3, dose 2000 μg/mL): 104.6%
- CE3 (TK6 cells; short treatment, +S9 mix, as fraction, dose 62.5 μg/mL): 0.921
- CE3 (TK6 cells; short treatment, +S9 mix, as fraction, dose 250 μg/mL): 1.046
- CE3 (TK6 cells; short treatment, +S9 mix, as fraction, dose 500 μg/mL): 0.921
- CE3 (TK6 cells; short treatment, +S9 mix, as fraction, dose 1000 μg/mL): 1.082
- CE3 (TK6 cells; short treatment, +S9 mix, as fraction, dose 2000 μg/mL): 1.046
- RSG (TK6 cells; [6]): 1.016
- RSG (TK6 cells; [7]): 1.004
- RSG (TK6 cells; [8]): 1.149
- RSG (TK6 cells; [9]): 0.770
- RSG (TK6 cells; [10]): 0.963
- Adjusted CE0 (TK6 cells; [20]): 82.4%
- CE0 (TK6 cells; [20]): 77.0%
- RS0 (TK6 cells; [20]): 94.7%
- Adjusted CE0 (TK6 cells; [21]): 97.6%
- CE0 (TK6 cells; [21]): 92.1%
- RS0 (TK6 cells; [21]): 112.2%
- Adjusted CE0 (TK6 cells; [22]): 99.4%
- CE0 (TK6 cells; [22]): 92.1%
- RS0 (TK6 cells; [22]): 114.3%
- Adjusted CE0 (TK6 cells; [23]): 93.9%
- CE0 (TK6 cells; [23]): 92.1%
- RS0 (TK6 cells; [23]): 107.9%
- CE3 (TK6 cells; short treatment, -S9 mix, Day 3, dose 62.50 μg/mL): 125.0%
- CE3 (TK6 cells; short treatment, -S9 mix, Day 3, dose 500.0 μg/mL): 95.0%
- CE3 (TK6 cells; short treatment, -S9 mix, Day 3, dose 1000.0 μg/mL): 108.2%
- CE3 (TK6 cells; short treatment, -S9 mix, Day 3, dose 2000.0 μg/mL): 89.3%
- CE3 (TK6 cells; short treatment, -S9 mix, as fraction, dose 62.50 μg/mL): 1.250
- CE3 (TK6 cells; short treatment, -S9 mix, as fraction, dose 500.0 μg/mL): 0.950
- CE3 (TK6 cells; short treatment, -S9 mix, as fraction, dose 1000.0 μg/mL): 1.082
- CE3 (TK6 cells; short treatment, -S9 mix, as fraction, dose 2000.0 μg/mL): 0.893
- RSG (TK6 cells; [11]): 0.906
- RSG (TK6 cells; [12]): 1.168
- RSG (TK6 cells; [13]): 0.743
- RSG (TK6 cells; [14]): 0.681
